Reference: the supplement of paper PMC4862054

How the values were obtained:
Conditions in all cases: incubation time: 72 h
BT-474 [1] = experiment: normalised response (% of control), CellTox Green; higher = less cell death (100 = DMSO, 0 = benzethonium chloride kill control)
How it was run: (§1)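 For each plate, 0.1 % DMSO was set to 100 and a positive kill control to 0. Breast cancer cell lines (20 µl suspension) were seeded into 384-well plates already holding compound at 5 concentrations in 10-fold steps over a 10,000-fold range chosen per compound, and incubated for 72 h. CellTox Green fluorescence at 485/520 nm was read before CellTiter-Glo luminescence, which followed 10 min at room temperature. Each value is the normalised signal at one concentration.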

BT-549 [2] = experiment: as above
How it was run: as §1

CAL-120 [3] = experiment: as above
How it was run: as §1

CAL-148 [4] = experiment: as above
How it was run: as §1

CAL-51 [5] = experiment: as above
How it was run: as §1

CAL-85-1 [6] = experiment: as above
How it was run: as §1

DU-4475 [7] = experiment: as above
How it was run: as §1

HCC1143 [8] = experiment: as above
How it was run: as §1

HCC1599 [9] = experiment: as above
How it was run: as §1

HCC1937 [10] = experiment: as above
How it was run: as §1

HDQ-P1 [11] = experiment: as above
How it was run: as §1

Hs578T [12] = experiment: as above
How it was run: as §1

MCF-10A [13] = experiment: as above
How it was run: as §1

MDA-MB-231 [14] = experiment: as above
How it was run: as §1

MDA-MB-436 [15] = experiment: as above
How it was run: as §1

MDA-MB-453 [16] = experiment: as above
How it was run: as §1

MDA-MB-468 [17] = experiment: as above
How it was run: as §1

MFM-223 [18] = experiment: as above
How it was run: as §1

BT-474 [19] = experiment: normalised response (% of control), CellTiter-Glo; higher = more viable cells (100 = DMSO, 0 = benzethonium chloride kill control)
How it was run: as §1

BT-549 [20] = experiment: as above
How it was run: as §1

CAL-120 [21] = experiment: as above
How it was run: as §1

CAL-148 [22] = experiment: as above
How it was run: as §1

CAL-51 [23] = experiment: as above
How it was run: as §1

CAL-85-1 [24] = experiment: as above
How it was run: as §1

DU-4475 [25] = experiment: as above
How it was run: as §1

HCC1143 [26] = experiment: as above
How it was run: as §1

HCC1599 [27] = experiment: as above
How it was run: as §1

HCC1937 [28] = experiment: as above
How it was run: as §1

HDQ-P1 [29] = experiment: as above
How it was run: as §1

Hs578T [30] = experiment: as above
How it was run: as §1

MCF-10A [31] = experiment: as above
How it was run: as §1

MDA-MB-231 [32] = experiment: as above
How it was run: as §1

MDA-MB-436 [33] = experiment: as above
How it was run: as §1

MDA-MB-453 [34] = experiment: as above
How it was run: as §1

MDA-MB-468 [35] = experiment: as above
How it was run: as §1

MFM-223 [36] = experiment: as above
How it was run: as §1

SK-BR-3 = experiment: as above
How it was run: as §1

SMILES | normalised response (BT-474 [1]) [%] | normalised response (BT-549 [2]) [%] | normalised response (CAL-120 [3]) [%] | normalised response (CAL-148 [4]) [%] | normalised response (CAL-51 [5]) [%] | normalised response (CAL-85-1 [6]) [%] | normalised response (DU-4475 [7]) [%] | normalised response (HCC1143 [8]) [%] | normalised response (HCC1599 [9]) [%] | normalised response (HCC1937 [10]) [%] | normalised response (HDQ-P1 [11]) [%] | normalised response (Hs578T [12]) [%] | normalised response (MCF-10A [13]) [%] | normalised response (MDA-MB-231 [14]) [%] | normalised response (MDA-MB-436 [15]) [%] | normalised response (MDA-MB-453 [16]) [%] | normalised response (MDA-MB-468 [17]) [%] | normalised response (MFM-223 [18]) [%] | normalised response (BT-474 [19]) [%] | normalised response (BT-549 [20]) [%] | normalised response (CAL-120 [21]) [%] | normalised response (CAL-148 [22]) [%] | normalised response (CAL-51 [23]) [%] | normalised response (CAL-85-1 [24]) [%] | normalised response (DU-4475 [25]) [%] | normalised response (HCC1143 [26]) [%] | normalised response (HCC1599 [27]) [%] | normalised response (HCC1937 [28]) [%] | normalised response (HDQ-P1 [29]) [%] | normalised response (Hs578T [30]) [%] | normalised response (MCF-10A [31]) [%] | normalised response (MDA-MB-231 [32]) [%] | normalised response (MDA-MB-436 [33]) [%] | normalised response (MDA-MB-453 [34]) [%] | normalised response (MDA-MB-468 [35]) [%] | normalised response (MFM-223 [36]) [%] | normalised response (SK-BR-3) [%]
CCn1c(C(=O)N(C2CC2)C2CC2)cc2c3c(ncn3C)c(Nc3cc(C)n(C)n3)nc21 (1000 nM) | 98.8 | 94.2 | 96.2 | 87.1 | 98.2 | 102 | 103 | 106 | 89.3 | 120 | 96.2 | 93 | 117 | 102 | 98.2 | 104 | 95.6 | 98.5 | 92.7 | 98.2 | 96.4 | 96.6 | 70.1 | 99.5 | 97.2 | 103 | 124 | 101 | 98.8 | 95.8 | 99.9 | 92.5 | 105 | 92.7 | 85.4 | 95.2 | 101
CCN(CC)CCCC(C)Nc1ccnc2cc(Cl)ccc12 (configuration not stated) [Chloroquine] (10000 nM) | 35.4 | 93.2 | -30.1 | 35.5 | 91.5 | 93 | 96.2 | 110 | 86.2 | 91.5 | 81.6 | 94.3 | 95.2 | 50.4 | 59.4 | 62.1 | 119 | 67.7 | 72.1 | 73.3 | 50.6 | 60.2 | 51.7 | 57.7 | 80.1 | 89.6 | 65.3 | 65.7 | 86.2 | 97.4 | 74.2 | 73.9 | 77.3 | 28.8 | 57.4 | 62.9 | 35.2
O=C(O)CNC(=O)c1c(O)c2ccccc2n(Cc2ccccc2)c1=O [IOX-2] (5000 nM) | 100 | 72.8 | 98.4 | 98.5 | 94.9 | 104 | 103 | 97.1 | 98.2 | 114 | 105 | 58.2 | 84.6 | 66.4 | 93.2 | 110 | 57.3 | – | 95.7 | 96.2 | 101 | 100 | 85.1 | 96.9 | 99.3 | 103 | 114 | 93.3 | 100 | 100 | 104 | 91.3 | 96.7 | 93.1 | 106 | 97.7 | 99.7
CN(C)C(=N)NC(=N)N [Metformin] (10000 nM) | 95 | 76.2 | 88.3 | 97.9 | 66.7 | 98 | 89.4 | 72.2 | 82.2 | 66.8 | 101 | 83.7 | 103 | 90.4 | 55.5 | 80.9 | 79.5 | 99.2 | 91 | 98.4 | 106 | 98.3 | 75.2 | 102 | 79.5 | 93.6 | 108 | 99.5 | 97.2 | 98.9 | 87.7 | 93.5 | 101 | 80.3 | 92.7 | 92.4 | 77.8
CN(Cc1cnc2nc(N)nc(N)c2n1)c1ccc(C(=O)N[C@@H](CCC(=O)O)C(=O)O)cc1 [Methotrexate] (5000 nM) | 102 | 125 | 98.9 | 100 | 115 | 102 | 102 | 109 | 98.8 | 110 | 107 | 102 | 107 | 116 | 97.6 | 107 | 129 | 97.5 | 78.1 | 97.8 | 21.1 | 100 | 56.8 | 51.4 | 102 | 83.5 | 97.9 | 31.3 | 51.3 | 110 | 107 | 77.5 | 81.5 | 110 | 99.4 | 104 | 115
O=[N+]([O-])c1ccc2c(c1)S(=O)(=O)C=C2 [Stattic] (5000 nM) | 12.7 | -67.2 | 105 | 51.2 | -12.3 | -36.1 | 104 | 118 | 95.2 | 28.6 | 106 | -141 | – | 51.2 | 106 | 108 | -175 | 4.35 | 68.9 | 0.47 | 88.3 | 46.4 | 0.16 | 1.59 | 101 | 93.1 | 86.9 | 22.3 | 92.2 | 29.6 | 105 | 30.9 | 75.7 | 45 | 2.23 | 22.8 | 80.9
CC(C)n1cnc2c(NCCc3ccc(O)cc3)nc(-c3csc4ccccc34)nc21 [StemRegenin 1] (1000 nM) | 100 | -112 | 104 | 85.1 | 118 | 118 | 107 | 119 | 96 | 89.9 | 102 | 88.4 | 83.1 | 114 | 110 | 110 | 137 | 81.1 | 108 | 77.9 | 99.9 | 99.3 | 121 | 98.8 | 103 | 110 | 111 | 95.4 | 89.6 | 105 | 94 | 110 | 100 | 102 | 100 | 93.8 | 96.5
